From patent US20040067562A1, “Process for the production of L-lysine using coryneform bacteria” (priority 2002, published 2004)

Legend:
[1] = tested on: feedback-resistant aspartate kinase; assay: inhibition of feedback-resistant aspartate kinase by lysine (or analogue)/threonine mixtures; type: biochemical, Corynebacterium glutamicum; details: feedback-resistant enzyme of strain DM1725; lysine or analogue 100 mM in mixture with threonine (10 mM)
Description: (§1) The Corynebacterium glutamicum strain DM1725 was produced by multiple untargeted and targeted mutagenesis including genetic engineering methods, selection and mutant selection from C. glutamicum ATCC13032. The strain is resistant to the lysine analogue S-(2-aminoethyl)-L-cysteine and has two identical complete copies of the LysC gene that code for a feedback-resistant aspartate kinase. The two copies are located at the LysC gene site on the chromosome. […] The strain is streptomycin resistant.

[2] = molecular target: T1, aspartate kinase in the wild type (Corynebacterium glutamicum, UniProt P26512); assay: inhibition of wild type aspartate kinase by lysine (or analogue)/threonine mixtures; type: biochemical; details: wild type enzyme; lysine or analogue 100 mM in mixture with threonine (10 mM)
T1 construct: endogenous in cells
Description: as §1

T1 sequence (P26512 whole entry): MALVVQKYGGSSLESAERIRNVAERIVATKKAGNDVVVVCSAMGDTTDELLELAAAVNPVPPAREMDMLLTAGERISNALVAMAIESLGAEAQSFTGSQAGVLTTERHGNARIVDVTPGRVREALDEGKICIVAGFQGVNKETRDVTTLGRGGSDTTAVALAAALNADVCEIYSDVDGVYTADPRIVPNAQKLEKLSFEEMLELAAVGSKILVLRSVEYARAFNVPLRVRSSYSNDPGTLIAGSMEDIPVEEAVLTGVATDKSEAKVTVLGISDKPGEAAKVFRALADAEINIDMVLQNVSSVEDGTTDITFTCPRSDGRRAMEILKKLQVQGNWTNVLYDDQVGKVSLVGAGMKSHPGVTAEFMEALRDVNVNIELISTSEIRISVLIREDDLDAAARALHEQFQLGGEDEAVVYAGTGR
T1 sequence (P26512 250-421): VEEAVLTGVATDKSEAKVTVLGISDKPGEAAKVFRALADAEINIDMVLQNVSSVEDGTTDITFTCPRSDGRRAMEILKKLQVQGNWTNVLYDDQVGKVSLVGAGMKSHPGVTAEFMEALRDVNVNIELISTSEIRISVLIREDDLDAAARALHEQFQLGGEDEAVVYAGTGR

Row | SMILES | inhibition of aspartate kinase [1] | residual activity of aspartate kinase [2] [%]
1 | NCCCC[C@H](N)C(=O)O [lysine] | insensitive to inhibition | 10
2 | NCCSC[C@H](N)C(=O)O [S-(2-aminoethyl)-L-cysteine] | insensitive to inhibition | 10
